Measured values published in patent publication US10746747B2, “Method for quantitative characterization of substances with regard to their properties of binding to amyloid-β (Aβ) conformers” (FORSCHUNGSZENTRUM JUELICH GMBH, priority 2013, dated 2020).
Read-outs that look alike come from different tables or passages of the source. Square brackets hold non-standard residues; d marks the D form. Peptide text beside a SMILES is read from it.

How the values were obtained:
Aβ(1-42) oligomers = biological target: T1, Aβ(1-42) oligomers (Homo sapiens, UniProt P05067); assay: SPR single-cycle kinetics on immobilized Aβ(1-42) oligomers; details: oligomers by density gradient centrifugation, 1356 RU immobilized, heterogeneous binding model, two sites
T1 construct: oligomers and fibrils being composed of a 1:10 ratio of biotinylated Aβ(1-42) to non-biotinylated Aβ(1-42)
T1 sequence (P05067 672-713 limits assumed): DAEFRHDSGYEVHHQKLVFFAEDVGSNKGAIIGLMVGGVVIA
Description: (§1) The results can be obtained by surface plasmon resonance or by biolayer interferometry. In the case of surface plasmon resonance, regeneration steps between individual analyte injections are circumvented by carrying out the interaction studies using the “single-cycle kinetics” measurement method. Thus, advantageously, different analyte concentrations are injected directly one after the other.
(§2) In order to ensure a homogeneous sample preparation, monomers and oligomers were separated by means of size exclusion chromatography (SEC), and fibrils were separated from other forms by means of density gradient centrifugation. The immobilization on streptavidin-loaded SPR sensor surfaces took place by using biotinylated Aβ(1-42), oligomers and fibrils being composed of a 1:10 ratio of biotinylated Aβ(1-42) to non-biotinylated Aβ(1-42).
(§3) The lyophilized samples of N-terminally biotinylated Aβ(1-42) and non-biotinylated Aβ(1-42) were each dissolved separately from one another in 100% hexafluoroisopropanol (HIFP) and incubated overnight at room temperature. The volumes required for a 1:10 ratio were then combined and the HFIP was evaporated off using a concentrator.
(§4) For the preparation of monomeric and oligomeric Aβ(1-42), the previously obtained pellet was taken up in the size exclusion chromatography buffer (50 mM sodium phosphate buffer, 150 mM NaCl, 0.6% Tween 20, pH 7.4) and briefly centrifuged for 30 seconds at 15500 g in order to sediment insoluble material.
(§5) The supernatant after the centrifugation step at the end of the preparation of monomeric and oligomeric Aβ(1-42) was then applied directly to a Superdex 75 10/300 GL (GE Healthcare) column for chromatographic separation. The flow rate during the elution with size exclusion chromatography buffer was 0.8 ml/min. Monomers eluted at ˜14 ml, whereas oligomers eluted at ˜8 ml.
(§6) The density gradient was prepared by subsequently layering over the density gradient solution (iodixanol diluted in 10 mM sodium phosphate buffer pH 7.4) in concentrations of 50% (260 μl), 40% (260 μl), 30% (260 μl), 20% (260 μl), 10% (260 μl) and 5% (100 μl) (v/v). The samples were then pipetted onto the density gradient and centrifugation was carried out for 3 hours at 4° C. and 259000 g. A total of 14 fractions, each of 140 μl, was then removed from the density gradient from top to bottom. Monomers are found in the first fraction, oligomers are found in fractions 5 and 6, and fibrils are found typically in fractions 11-13.
(§7) The monomers are biotinylated C-terminally, unlike the oligomers and fibrils (N-terminally). The response units (Y-axis) were plotted against the time in seconds (X-axis), wherein the black curves represent the double-referenced experimental data and the gray superposed curves represent the fits. […]

Aβ(1-42) fibrils = biological target: T2, Aβ(1-42) fibrils (Homo sapiens, UniProt P05067); assay: SPR single-cycle kinetics on immobilized Aβ(1-42) fibrils; details: fibrils by density gradient centrifugation, 1324 RU immobilized, binding model with three binding sites
T2 construct: oligomers and fibrils being composed of a 1:10 ratio of biotinylated Aβ(1-42) to non-biotinylated Aβ(1-42)
T2 sequence (P05067 672-713 limits assumed): as above
Description: as §1, §2, §3
For the preparation of fibrillar Aβ(1-42), the pellets obtained after the evaporation were dissolved in 10 mM sodium phosphate buffer pH 7.4 and incubated for 24 hours at 25° C. and at 600 rpm.
as §6
The monomers are biotinylated C-terminally, unlike the oligomers and fibrils (N-terminally). The response units (Y-axis) were plotted against the time in seconds (X-axis), wherein the black curves represent the double-referenced experimental data and the gray superposed curves represent the fits. For characterizing the scFv-IC16, therefore, measurements using biotinylated Aβ(1-42) are possible; C-terminally biotinylated Aβ(1-42) was used here. For fitting to monomers, a 1:1 Langmuir binding model was used and oligomers and fibrils were fitted to a heterogeneous binding model which takes account of two different binding sites on the sensor surface. It can clearly be seen that the fits coincide very well with the experimental data. This is direct evidence of the successful immobilization of the various forms and the respectively homogeneous surface.
The index a1 and d1 refer respectively to the association and dissociation rate of the antibody fragment scFv-IC16 on the respective exposed epitope of the conformer. The index a2 and d2, on the other hand, refer respectively to the association and dissociation rate of the antibody fragment scFv-IC16 on discontinuous epitopes of the respective conformer. Analogously, the indices D1 and D2 refer to the dissociation constants on the continuous and discontinuous epitope.
The D-enantiomeric peptide D7 was identified by a mirror image […] selection and analyzed using the method described above with regard to the binding properties, by way of example as a substance to be tested. In a manner differing from the measurement data in FIG. 3, in this case, all the different Aβ(1-42) conformers (monomers, oligomers and fibrils) were prepared by means of density gradient centrifugation and immobilized in various quantities on the sensor surface. In the case of the monomers, 1423 RU were immobilized, in the case of the oligomers 1356 RU, and in the case of the fibrils 1324 RU. […]

Aβ(1-42) monomers = biological target: T3, Aβ(1-42) monomers (Homo sapiens, UniProt P05067); assay: SPR single-cycle kinetics on immobilized Aβ(1-42) monomers; details: monomers by density gradient centrifugation, 1423 RU immobilized, heterogeneous binding model, two sites
T3 construct: sensor surfaces containing immobilized Aβ(1-42) monomers, oligomers and fibrils
T3 sequence (P05067 672-713 limits assumed): as above
Description: as §1, §2, §3, §4, §5, §6, §7

[1] = sub-reaction 1, read-out: ka1 association rate
[2] = sub-reaction 1, read-out: kd1 dissociation rate
[3] = sub-reaction 2, read-out: ka2 association rate
[4] = sub-reaction 2, read-out: kd2 dissociation rate

Compound `CSCC[C@@H](NC(=O)[C@@H](Cc1c[nH]cn1)NC(=O)[C@@H](Cc1ccc(O)cc1)NC(=O)[C@H](NC(=O)[C@@H](Cc1ccc(O)cc1)NC(=O)[C@@H](Cc1ccc(O)cc1)NC(=O)[C@@H](CCC(=O)O)NC(=O)[C@@H](Cc1ccccc1)NC(=O)[C@@H](CCCNC(=N)N)NC(=O)[C@H](NC(=O)[C@H](N)Cc1c[nH]cn1)[C@H](C)O)C(C)C)C(=O)N[C@H](CO)C(=O)O` [D7, htrfeyyvyhms] (H-[dH][dT][dR][dF][dE][dY][dY][dV][dY][dH][dM][dS]-OH; N-terminus and C-terminus assumed) has a kon (Aβ(1-42) oligomers; [1]) of 4520 M⁻¹ s⁻¹, a koff (Aβ(1-42) oligomers; [2]) of 0.000402 s⁻¹ and a kon (Aβ(1-42) oligomers; [3]) of 66200 M⁻¹ s⁻¹. It also gave a koff (Aβ(1-42) oligomers; [4]) of 0.0153 s⁻¹, a kon (Aβ(1-42) fibrils; [1]) of 18200 M⁻¹ s⁻¹ and a koff (Aβ(1-42) fibrils; [2]) of 0.262 s⁻¹. It also gave a kon (Aβ(1-42) fibrils; [3]) of 1320 M⁻¹ s⁻¹, a koff (Aβ(1-42) fibrils; [4]) of 0.000193 s⁻¹ and a kon (Aβ(1-42) fibrils; sub-reaction 3, read-out: ka3 association rate) of 32300 M⁻¹ s⁻¹. For the same compound, the koff (Aβ(1-42) fibrils; sub-reaction 3, read-out: kd3 dissociation rate) was 0.0125 s⁻¹, the kon (Aβ(1-42) monomers; [1]) was 2420 M⁻¹ s⁻¹ and the koff (Aβ(1-42) monomers; [2]) was 0.000364 s⁻¹. It also gave a kon (Aβ(1-42) monomers; [3]) of 100000 M⁻¹ s⁻¹ and a koff (Aβ(1-42) monomers; [4]) of 0.00928 s⁻¹.
